Tests used:
[1] = molecular target: T1, Gamma-aminobutyric acid receptor subunit rho-1 (Homo sapiens, UniProt P24046); experiment: Agonist activity at human recombinant GABAc rho1 receptor expressed in Xenopus laevis oocytes at -60mV by two-electrode voltage clamp method; assay type: functional, cell-based, Oocyte
[2] = molecular target: T1, Gamma-aminobutyric acid receptor subunit rho-1; experiment: Antagonist activity at human recombinant GABAc rho1 receptor expressed in Xenopus laevis oocytes at -60mV by two-electrode voltage clamp method; assay type: functional, cell-based, Oocyte

T1 sequence (P24046 whole entry): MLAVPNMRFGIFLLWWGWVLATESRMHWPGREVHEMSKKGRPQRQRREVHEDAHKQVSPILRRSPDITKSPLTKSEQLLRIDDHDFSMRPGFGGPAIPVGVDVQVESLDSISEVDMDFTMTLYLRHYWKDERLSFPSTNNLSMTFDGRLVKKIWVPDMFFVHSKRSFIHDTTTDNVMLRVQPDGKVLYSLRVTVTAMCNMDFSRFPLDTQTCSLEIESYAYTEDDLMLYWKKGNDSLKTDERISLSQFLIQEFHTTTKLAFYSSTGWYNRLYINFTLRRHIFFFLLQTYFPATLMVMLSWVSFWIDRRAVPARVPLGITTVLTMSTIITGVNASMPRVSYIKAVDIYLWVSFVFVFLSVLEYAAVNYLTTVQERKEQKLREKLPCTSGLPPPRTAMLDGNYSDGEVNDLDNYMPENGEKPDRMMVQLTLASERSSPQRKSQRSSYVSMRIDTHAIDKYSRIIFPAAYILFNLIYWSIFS

EC50 [1] [µM]	SMILES	IC50 [2] [µM]
44.8	NC[C@@H](O)CC(=O)O	–
19.1	NC[C@H](O)CC(=O)O	–
65	C[C@@H](CCN)C(=O)O	–
–	C[C@H](CCN)C(=O)O	16
–	CP(=O)(O)C[C@@H](O)CN	17.1
–	CP(=O)(O)C[C@H](O)CN	5.4
